Measured values: patent publication US20050049278A1, “Benzo[1,3]dioxole compounds, pharmaceutical compositions thereof, and processes of making and using the same” (priority 2003, published 2005)

Experiments:
topoisomerase I = target: T1, topoisomerase I (Homo sapiens, UniProt P11387); assay: Topoisomerase I assay (supercoiled pBluescript DNA, agarose gel); format: biochemical; conditions: in vitro, FIG. 2
T1 construct: purchased Sigma-Aldrich
T1 sequence (P11387 1-765): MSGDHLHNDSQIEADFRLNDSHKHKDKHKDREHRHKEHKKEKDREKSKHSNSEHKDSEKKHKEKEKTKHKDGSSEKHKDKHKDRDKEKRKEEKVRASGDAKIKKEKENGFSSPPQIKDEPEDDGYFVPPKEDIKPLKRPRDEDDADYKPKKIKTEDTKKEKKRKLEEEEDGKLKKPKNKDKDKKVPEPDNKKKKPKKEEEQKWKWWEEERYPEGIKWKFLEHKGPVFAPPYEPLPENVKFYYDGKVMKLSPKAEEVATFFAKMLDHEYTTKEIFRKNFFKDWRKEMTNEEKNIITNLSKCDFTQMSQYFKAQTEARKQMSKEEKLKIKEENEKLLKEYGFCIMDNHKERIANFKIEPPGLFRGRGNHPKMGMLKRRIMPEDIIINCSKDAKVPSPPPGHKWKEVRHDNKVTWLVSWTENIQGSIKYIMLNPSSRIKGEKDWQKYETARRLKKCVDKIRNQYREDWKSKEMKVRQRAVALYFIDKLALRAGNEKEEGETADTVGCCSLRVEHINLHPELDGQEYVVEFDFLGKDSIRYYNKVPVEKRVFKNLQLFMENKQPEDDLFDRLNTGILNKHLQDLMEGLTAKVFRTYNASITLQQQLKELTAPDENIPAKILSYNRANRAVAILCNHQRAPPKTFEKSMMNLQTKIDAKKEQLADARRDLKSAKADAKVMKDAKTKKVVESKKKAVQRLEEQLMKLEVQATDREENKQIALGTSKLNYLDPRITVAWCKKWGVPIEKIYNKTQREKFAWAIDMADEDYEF
Description: (§1) The ability of compounds that cause S-phase cell cycle arrest to inhibit topoisomerase I and topoisomerase II was examined. Analysis of topoisomerase activity was performed in 20 μl reactions with either topoisomerase I reaction buffer (10 mM TRIS-HCl, pH 7.5; 100 mM NaCl; 1 mM 2-mercaptoethanol) or topoisomerase II reaction buffer (50 mM Tris-HCl, pH 8; 120 mM KCl; 10 mM MgCl2; 0.5 mM dithiothreitol; 0.5 mM ATP; 30 μg BSA/ml) containing 125 ng supercoiled pBluescript DNA and either 2 U topoisomerase I (Sigma-Aldrich) or topoisomerase II (Topogen Inc.). After reaction at 37° C. for 20 minutes, the reactions were terminated through the addition of sodium dodecyl sulfate to 1% w/v and heating to 65° C. for 10 minutes. Proteinase K was then added to 10 μg/ml and digestion was allowed to proceed at 37° C. for 20 minutes before electrophoresis of the DNA in 0.8% agarose gels containing 0.5 μg/ml ethidium bromide for 18 hours at 75V in 0.5×TBE buffer. DNA was then visualized using a UV-transilluminator and the image was captured using a BioRad CCD camera and gel documentation system.

topoisomerase II = target: T2, topoisomerase II (Homo sapiens, UniProt P11388); assay: Topoisomerase II assay (supercoiled pBluescript DNA, agarose gel); format: biochemical; conditions: in vitro, FIG. 2
T2 construct: purchased Topogen Inc
Description: as §1, with “Analysis” for “The ability of compounds that cause S-phase cell cycle arrest to inhibit topoisomerase I and topoisomerase II was examined. Analysis”

T2 sequence (P11388 whole entry): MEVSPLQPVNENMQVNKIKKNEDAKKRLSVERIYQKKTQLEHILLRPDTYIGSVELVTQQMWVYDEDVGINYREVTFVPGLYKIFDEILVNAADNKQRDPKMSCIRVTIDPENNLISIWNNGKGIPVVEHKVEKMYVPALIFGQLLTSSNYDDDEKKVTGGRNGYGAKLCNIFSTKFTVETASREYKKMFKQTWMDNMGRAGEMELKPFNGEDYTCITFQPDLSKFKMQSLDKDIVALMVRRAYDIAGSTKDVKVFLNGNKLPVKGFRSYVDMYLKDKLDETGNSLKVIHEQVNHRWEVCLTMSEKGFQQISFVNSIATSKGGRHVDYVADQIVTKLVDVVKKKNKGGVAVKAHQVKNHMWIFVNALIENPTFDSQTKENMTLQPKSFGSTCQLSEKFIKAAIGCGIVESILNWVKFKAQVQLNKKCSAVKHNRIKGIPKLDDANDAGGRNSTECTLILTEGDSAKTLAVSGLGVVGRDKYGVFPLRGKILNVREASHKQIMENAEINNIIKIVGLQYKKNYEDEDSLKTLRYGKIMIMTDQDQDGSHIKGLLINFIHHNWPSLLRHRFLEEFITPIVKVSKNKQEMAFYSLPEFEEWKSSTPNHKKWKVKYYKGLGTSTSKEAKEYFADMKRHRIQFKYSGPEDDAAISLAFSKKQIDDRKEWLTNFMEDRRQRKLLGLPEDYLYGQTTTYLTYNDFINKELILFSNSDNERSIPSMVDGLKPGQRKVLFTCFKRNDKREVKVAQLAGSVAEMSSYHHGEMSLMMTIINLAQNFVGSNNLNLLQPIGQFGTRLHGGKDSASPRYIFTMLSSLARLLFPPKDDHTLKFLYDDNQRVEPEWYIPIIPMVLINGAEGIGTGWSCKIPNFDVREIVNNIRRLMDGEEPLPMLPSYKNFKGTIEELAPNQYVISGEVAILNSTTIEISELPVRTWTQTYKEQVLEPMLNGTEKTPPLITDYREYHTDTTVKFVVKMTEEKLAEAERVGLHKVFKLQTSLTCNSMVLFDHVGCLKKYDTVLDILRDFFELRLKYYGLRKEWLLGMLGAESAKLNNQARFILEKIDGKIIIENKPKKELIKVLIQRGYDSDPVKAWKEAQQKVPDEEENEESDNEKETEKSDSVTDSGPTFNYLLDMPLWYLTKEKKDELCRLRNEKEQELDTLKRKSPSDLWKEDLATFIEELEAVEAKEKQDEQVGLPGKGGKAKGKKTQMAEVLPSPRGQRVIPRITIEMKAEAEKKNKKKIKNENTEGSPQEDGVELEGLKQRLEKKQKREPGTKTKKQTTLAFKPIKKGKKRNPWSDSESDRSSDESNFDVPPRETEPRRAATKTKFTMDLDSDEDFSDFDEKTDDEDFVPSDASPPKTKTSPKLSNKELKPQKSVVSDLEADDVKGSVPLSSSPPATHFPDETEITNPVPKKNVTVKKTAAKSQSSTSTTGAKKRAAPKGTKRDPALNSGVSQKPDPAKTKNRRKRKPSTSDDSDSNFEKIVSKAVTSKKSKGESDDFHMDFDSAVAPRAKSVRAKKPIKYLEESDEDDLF

In the case of `CC[C@@]1(O)C(=O)OCc2c1cc1n(c2=O)Cc2cc3c(CN(C)C)c(O)ccc3nc2-1` [topotecan], the “concentrations at which topoisomerase I activity was inhibited” value (topoisomerase I) was “below 3 μM” and the “inhibition of topoisomerase II activity” value (topoisomerase II) was “neither topotecan nor noscapine acts as inhibitors”.
